By melting point is commonly meant the temperature, or range, at which the solid turns liquid. The boiling point is the temperature of boiling at a given pressure.

Settings in one data set: not given
Compound `O=C1/C(=C/c2ccc(O)c(O)c2)Oc2cc(O)ccc21` registered a melting point of 303 °C.

For the compound `OCC(O)CCl` (stereo not given), the log10 vapour pressure (mmHg) was -0.699 and the ready biodegradability result is “readily biodegradable”. `CC1COc2ccccc2N1C(=O)C(Cl)Cl` (stereo not given) registered a log10 vapour pressure (mmHg) of -5.35 and a melting point of 108 °C. The compound `COP(=O)(OC)OC=C(Cl)Cl` returned a boiling point of 234 °C, a log10 Koc (L/kg) of 1.67, a log10 vapour pressure (mmHg) of -1.8 and a melting point of -60 °C. Besides, the ready biodegradability result was “readily biodegradable”.

In the case of `CC(=O)c1ccc(Cl)c(Cl)c1`, the melting point worked out at 76 °C.

Compound `Cc1cc(C2CC2)nc(Nc2ccccc2)n1` gave a log10 vapour pressure (mmHg) of -5.43 and a melting point of 75.9 °C. `C=CC1(C)OC(=O)N(c2cc(Cl)cc(Cl)c2)C1=O` (stereo not given) showed a log10 Koc (L/kg) of 2.7, a log10 vapour pressure (mmHg) of -6.92 and a melting point of 108 °C.

As to `CC(Cl)CC(C)Cl` (stereo not given), the boiling point is 145 °C. In turn, `Cc1ccoc1` came in with a boiling point of 66 °C. For the compound `CC(=O)CO`, the boiling point is 146 °C, the melting point is -17 °C and the ready biodegradability entry is on record as “readily biodegradable”. Take `CCC=CBr`: the boiling point amounted to 99 °C and the log10 vapour pressure (mmHg) turned out to be 1.89. In turn, `Oc1ccccc1` displayed a boiling point of 182 °C, a log10 Henry constant (atm·m³/mol) of -6.48, a log10 Koc (L/kg) of 1.43 and a log10 vapour pressure (mmHg) of -0.456. Also, the melting point stood at 40.9 °C and the ready biodegradability entry is on record as “readily biodegradable”.

`CCCCc1cccc2[nH]nnc12` yielded a log10 Koc (L/kg) of 2.16. `CCOC(=O)Oc1c(OC)cc(C(=O)O[C@@H]2C[C@@H]3CN4CCc5c([nH]c6cc(OC)ccc56)[C@H]4C[C@@H]3[C@H](C(=O)OC)[C@H]2OC)cc1OC`: the melting point came out at 177 °C. `NC(=O)Oc1ccc(Cc2ccccc2)cc1` came in with a melting point of 148 °C. Compound `O=S(=O)(c1ccccc1)c1ccccc1` had a boiling point of 279 °C and a melting point of 128 °C. Consider `Clc1cccc(-c2c(Cl)c(Cl)c(Cl)c(Cl)c2Cl)c1Cl`, for which the log10 Henry constant (atm·m³/mol) was -4.85. Compound `C[C@]12CC[C@H](O)C=C1CC[C@@H]1[C@@H]2CC[C@]2(C)[C@@H](c3ccc(=O)oc3)CC[C@]12O` showed a melting point of 235 °C. Turning to `O=C(Cc1ccccc1)Cc1ccccc1`, the boiling point worked out at 331 °C, the log10 vapour pressure (mmHg) is -3.13 and the melting point is 35 °C.

In turn, `CCCCCOc1ccccc1` displayed a boiling point of 200 °C.

Compound `CCCC1CCCC(C)C1` (stereo not given) displayed a boiling point of 164 °C. In turn, `COc1ccc(C(=O)Cl)cc1` returned a boiling point of 262 °C and a melting point of 24.5 °C. As to `CCCCOCCOCCOC(=O)CCCCC(=O)OCCOCCOCCCC`, the melting point was -47 °C and the ready biodegradability entry is “readily biodegradable”. As to `CCCCOC(=O)CC(O)(CC(=O)OCCCC)C(=O)OCCCC`, the melting point is -20 °C. Take `CNc1ccc(NCCO)c2c1C(=O)c1ccccc1C2=O`: the melting point came out at 187 °C. For the compound `NCC1CCCCC1`, the boiling point was 160 °C.

In the case of `FC(F)(F)c1ccc(Cl)cc1Cl`, the boiling point is 178 °C, the log10 vapour pressure (mmHg) was 0.0449 and the melting point is -26 °C. Take `Brc1cccc(Br)c1Br`: the melting point turned out to be 87.5 °C. In turn, `CC1CCCC1` registered a boiling point of 71.8 °C, a log10 biodegradation half-life (days) of 0.602, a log10 vapour pressure (mmHg) of 2.14 and a melting point of -142 °C.

As to `Cc1ccccc1NC(=N)NC(=N)N`, the melting point came out at 144 °C. Same read-out and setting: as for `C1CC2CC1C1OC21` (stereo not given), the figure is 123 °C.

For the compound `CC(C)CB(CC(C)C)CC(C)C`, the boiling point worked out at 188 °C and the melting point was -88 °C. In turn, `COc1ccc(C(=O)O)cc1OC` displayed a log10 vapour pressure (mmHg) of -3.61 and a melting point of 181 °C. Compound `O=[N+]([O-])c1ccccc1CCl` yielded a melting point of 51 °C. For the compound `CC(C)Oc1cccc(NC(=O)c2ccccc2C(F)(F)F)c1`, the log10 vapour pressure (mmHg) is -7.31 and the melting point came to 104 °C. In turn, `CCNC(=S)NCC` showed a melting point of 78 °C. The compound `Cc1ccc(Cl)c(O)c1Cl` gave a boiling point of 237 °C and a melting point of 28 °C. As to `CCc1cc(C(N)=S)ccn1`, the melting point was 163 °C. Take `CCc1ccc2cc3ccccc3cc2c1`: the log10 vapour pressure (mmHg) was -5.28 and the melting point was determined as 152 °C. As to `OB(O)c1ccccc1`, the melting point was determined as 219 °C. `CC1(C)CNC(=NN=C(/C=C/c2ccc(C(F)(F)F)cc2)/C=C/c2ccc(C(F)(F)F)cc2)NC1`: the log10 Koc (L/kg) is 5.86, the log10 vapour pressure (mmHg) is -7.69 and the melting point was 188 °C.

Staying with this data set, now noted: fish.
`O=P(OCC(Br)CBr)(OCC(Br)CBr)OCC(Br)CBr` (stereo not given) registered a log10 BCF of 0.51.

For the compound `COc1ccc(Cl)c(Cl)c1Cl`, the log10 BCF stood at 2.96 and the log10 biotransformation half-life (days) came out at 1.4. For the compound `O=C1c2ccccc2-c2cccc3cccc1c23`, the log10 BCF is 2.09 and the log10 biotransformation half-life (days) is -0.69.

For the compound `CCCCCC[Si](O)(CCCCCC)CCCCCC`, the log10 BCF came out at 2.7 and the log10 biotransformation half-life (days) stood at 0.04. On the same counts, the results for `Cc1ccc([N+](=O)[O-])cc1O` are 0.85 and -1.24. In turn, `COP(=O)(OC)OC=C(Cl)Cl` came in with a log10 BCF of -0.3. Still for that read-out and setting: as for `Oc1ccccc1`, the figure is 1.24.

In the case of `FC(F)(F)c1ccc(Cl)cc1Cl`, the log10 BCF stood at 3.37 and the log10 biotransformation half-life (days) amounted to 1.81. On the same counts, the results for `CC(C)Oc1cccc(NC(=O)c2ccccc2C(F)(F)F)c1` are 1.29 and -0.61.

The record behind these values is the OPERA property sets (Mansouri et al. 2018).
